According to patent publication US7807367B2, “Enzymatic fluorometric assay for cAMP and adenylate cyclase and kits therefor” (Fuso Pharmaceutical Industries, Ltd., priority 1999, dated 2010):

System: ventricular myocytes
Assay: Micro cAMP measurement in tissue cultures with enzymatic fluorometric assay
Assay type: cell-based, rat
Conditions: isolated ventricular myocytes of 1 day-old rats, 2 μM IBMX, isoproterenol 1 μM final, 5 minutes, one-tenth of eluent, cAMP standard curve
Procedure: Isolated ventricular myocytes were obtained from hearts of 1 day-old rats, grown in primary cultures. There were approximately 5 million viable myocardial cells per heart. After plating at a density of approximately 1 million cells per 100 mm, dish cells were grown in minimum essential medium with Hanks balanced salt solution containing 5% bovine calf serum cells. Simpson et al., Cir. Res., 51, 787 (1982). On day 4, the medium was changed. The cultures contained >90% myocardial cells and cell numbers were constant over time. Simpson et al., Cir. Res., 51, 787 (1982); Rocha-Singh et al., J. Clin. Invest., 88, 204 (1991); and Rocha-Singh et al., J. Clin. Invest., 88, 706 (1991)
Six plates of myocytes were randomized into two groups (n=3 plates/group). […]
A volume of 125 μL of the Detecting Reaction Mixture prepared from (E) (100 mM Tris-HCl, pH 8.0; 3.2 mM EDTA; 0.6 mM NADP^+; 1 U/mL Phosphoglucose isomerase; 0.5 U/mL Glucose-6-phosphate dehydrogenase) was added to each assay tube from Cycling Reactions. After 20 minutes at room temperature, the final concentration of NADPH was measured using a fluorometer (Optical Technology Devises, Inc., NY). The fluorometer was set such that a reading of 10 fluorometric units was equivalent to 1 nmol of NADPH in 900 μL of buffer (50 mM Tris-HCl, pH 8.0). […]

**Q.** How did the “actual value of cAMP” value turn out when `CC(C)NCC(O)c1ccc(O)c(O)c1` (stereo not shown) [isoproterenol] was run?
**A.** 680 pmol/100 mm plate
